In PubChem BioAssay (NCI):
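Briefly, cells in 96-well plates were exposed to five compound concentrations for 48 h, and endpoints were estimated by linear interpolation. Abbreviation: GI50, concentration required for 50% inhibition of growth. TGI: total growth inhibition.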

Assays:
Test in all cases: NCI tumour cell line growth inhibition, 48 h
[1] = system: SK-MEL-2 melanoma
[2] = system: UACC-257 melanoma
[3] = system: SK-OV-3 ovarian
[4] = system: SF-295 CNS
[5] = system: SN12C renal
[6] = system: CAKI-1 renal
[7] = system: TK-10 renal
[8] = system: UO-31 renal
[9] = system: RXF 393 renal
[10] = system: DU-145 prostate
[11] = system: SK-MEL-28 melanoma
[12] = system: A498 renal
[13] = system: OVCAR-5 ovarian
[14] = system: UACC-62 melanoma
[15] = system: SK-MEL-5 melanoma
[16] = system: NCI-H226 lung
[17] = system: OVCAR-4 ovarian
[18] = system: HCC-2998 colon
[19] = system: COLO 205 colon
[20] = system: U251 CNS
[21] = system: LOX IMVI melanoma
[22] = system: SW-620 colon
[23] = system: MCF7 breast
[24] = system: HOP-92 NSCLC
[25] = system: K-562 leukemia
[26] = system: 786-0 renal
[27] = system: MALME-3M melanoma
[28] = system: NCI-H23 lung
[29] = system: CCRF-CEM leukemia
[30] = system: MOLT-4 leukemia
[31] = system: IGROV1 ovarian
[32] = system: HL-60(TB) leukemia
[33] = system: EKVX NSCLC
[34] = system: HOP-62 NSCLC
[35] = system: ACHN renal
[36] = system: T-47D breast
[37] = system: SNB-75 CNS
[38] = system: HS 578T breast
[39] = system: BT-549 breast
[40] = system: MDA-MB-231 breast
[41] = system: NCI-H460 lung
[42] = system: SR leukemia
[43] = system: NCI/ADR-RES ovarian
[44] = system: SF-539 CNS
[45] = system: HT29 colon
[46] = system: SNB-19 CNS
[47] = system: OVCAR-8 ovarian
[48] = system: PC-3 prostate
[49] = system: HCT-116 colon
[50] = system: RPMI-8226 leukemia
[51] = system: HCT-15 colon
[52] = system: KM12 colon
[53] = system: SF-268 CNS
[54] = system: NCI-H522 lung
[55] = system: A549 NSCLC
[56] = system: MDA-MB-435
[57] = system: M14 melanoma

Compound: N#Cc1c(-c2ccc(Cl)cc2)nc(SCc2ccc([N+](=O)[O-])cc2)nc1N1CCNCC1
- GI50 [1]: 1610 nM
- TGI [1]: 3050 nM
- GI50 [2]: 1620 nM
- TGI [2]: 3060 nM
- GI50 [3]: 1780 nM
- TGI [3]: 3200 nM
- GI50 [4]: 1780 nM
- TGI [4]: 3210 nM
- GI50 [5]: 1770 nM
- TGI [5]: 3260 nM
- GI50 [6]: 1550 nM
- TGI [6]: 2900 nM
- GI50 [7]: 1560 nM
- TGI [7]: 2960 nM
- GI50 [8]: 1320 nM
- TGI [8]: 2590 nM
- GI50 [9]: 1540 nM
- TGI [9]: 2970 nM
- GI50 [10]: 1730 nM
- TGI [10]: 3110 nM
- GI50 [11]: 1640 nM
- TGI [11]: 3020 nM
- GI50 [12]: 1560 nM
- TGI [12]: 2980 nM
- GI50 [13]: 1560 nM
- TGI [13]: 2980 nM
- GI50 [14]: 1690 nM
- TGI [14]: 3110 nM
- GI50 [15]: 1680 nM
- TGI [15]: 3060 nM

Compound: COc1ccccc1/C=C/C=N/NC1=NC2C(S1)N(C)C(=O)N2c1ccccc1 (centres undefined)
- GI50 [16]: 572 nM
- TGI [16]: > 47900 nM
- GI50 [17]: 5230 nM
- TGI [17]: > 100000 nM
- GI50 [18]: 377 nM
- TGI [18]: 11600 nM
- GI50 [19]: 230 nM
- TGI [19]: 487 nM
- GI50 [1]: 449 nM
- TGI [1]: 15300 nM
- GI50 [20]: 387 nM
- TGI [20]: 6280 nM
- GI50 [21]: 458 nM
- TGI [21]: 12500 nM
- GI50 [22]: 403 nM
- TGI [22]: 18900 nM
- GI50 [2]: 2180 nM
- TGI [2]: 34500 nM
- GI50 [3]: 510 nM
- TGI [3]: > 44800 nM
- GI50 [23]: 385 nM
- TGI [23]: > 100000 nM
- GI50 [24]: 202 nM
- TGI [24]: 1280 nM
- GI50 [25]: 383 nM
- TGI [25]: > 100000 nM
- GI50 [26]: 642 nM
- TGI [26]: 13800 nM
- GI50 [4]: 336 nM
- TGI [4]: 99200 nM
- GI50 [27]: 2680 nM
- TGI [27]: 29000 nM
- GI50 [28]: 474 nM
- TGI [28]: > 100000 nM
- GI50 [5]: 617 nM
- TGI [5]: 29000 nM
- GI50 [29]: 408 nM
- TGI [29]: > 78800 nM
- GI50 [30]: 404 nM
- TGI [30]: > 100000 nM
- GI50 [31]: 601 nM
- TGI [31]: 26300 nM
- GI50 [32]: 294 nM
- TGI [32]: > 31900 nM
- GI50 [33]: 729 nM
- TGI [33]: > 100000 nM
- GI50 [34]: 573 nM
- TGI [34]: 24700 nM
- GI50 [35]: 692 nM
- TGI [35]: > 48400 nM
- GI50 [36]: 4040 nM
- TGI [36]: > 79300 nM
- GI50 [6]: 562 nM
- TGI [6]: 37800 nM
- GI50 [7]: 11400 nM
- TGI [7]: > 70900 nM
- GI50 [37]: 419 nM
- TGI [37]: > 53100 nM
- GI50 [38]: 356 nM
- TGI [38]: 25500 nM
- GI50 [39]: 264 nM
- TGI [39]: 653 nM
- GI50 [40]: 588 nM
- TGI [40]: 20900 nM
- GI50 [41]: 349 nM
- TGI [41]: 11000 nM
- GI50 [8]: 799 nM
- TGI [8]: > 55600 nM
- GI50 [9]: 312 nM
- TGI [9]: 3360 nM
- GI50 [42]: 343 nM
- TGI [42]: > 46800 nM
- GI50 [43]: 359 nM
- TGI [43]: > 100000 nM
- GI50 [10]: 471 nM
- TGI [10]: > 100000 nM
- GI50 [44]: 292 nM
- TGI [44]: 867 nM
- GI50 [45]: 332 nM
- TGI [45]: 1490 nM
- GI50 [46]: 455 nM
- TGI [46]: > 93400 nM
- GI50 [47]: 357 nM
- TGI [47]: 2230 nM
- GI50 [48]: 435 nM
- TGI [48]: 19600 nM
- GI50 [49]: 353 nM
- TGI [49]: 5190 nM
- GI50 [50]: 396 nM
- TGI [50]: 11200 nM
- GI50 [51]: 371 nM
- TGI [51]: 23100 nM
- GI50 [52]: 400 nM
- TGI [52]: > 37100 nM
- GI50 [53]: 1690 nM
- TGI [53]: 37200 nM
- GI50 [54]: 210 nM
- TGI [54]: 575 nM
- GI50 [11]: 11800 nM
- TGI [11]: 42200 nM
- GI50 [12]: 251 nM
- TGI [12]: 730 nM
- GI50 [55]: 485 nM
- TGI [55]: > 100000 nM
- GI50 [56]: 250 nM
- TGI [56]: 636 nM
- GI50 [57]: 333 nM
- TGI [57]: 2340 nM
- GI50 [13]: 690 nM
- TGI [13]: > 100000 nM
- GI50 [14]: 456 nM
- TGI [14]: 37000 nM
- GI50 [15]: 545 nM
- TGI [15]: 5270 nM
